The source of these data is ChEMBL document CHEMBL4613209, “Quinolone hybrids and their anti-cancer activities: An overview” (Eur J Med Chem, 2019).

Holding throughout (type): functional, cell-based
The subject of assay [1] is HCT-116. Put plainly: Cytotoxicity against human HCT116 cells assessed as reduction in cell viability by SRB assay. On the technique in general: Sulforhodamine B stains cellular protein and so reports cell mass.
For assay [2], the system named is NCI-H460. In words: Cytotoxicity against human NCI-H460 cells assessed as reduction in cell viability by SRB assay.
The test system of assay [3] is U-251. Put plainly: Cytotoxicity against human U251 cells assessed as reduction in cell viability by SRB assay.
For assay [4], the system named is HL-60. Put plainly: Cytotoxicity against human HL60 cells assessed as reduction in cell viability.
The test system of assay [5] is CAPAN-1. Put plainly: Cytotoxicity against human Capan1 cells assessed as reduction in cell viability.
In assay [6] the test system is Hep 3B2. Put plainly: Cytotoxicity against human Hep3B cells assessed as reduction in cell viability.
Assay [7] has as its system SMMC-7721. Put plainly: Antiproliferative activity against human SMMC7721 cells by MTT assay. (In general: Tetrazolium dyes change colour on reduction, which living cells bring about.)
The test system of assay [8] is L1210. Put plainly: Antiproliferative activity against mouse L1210 cells by MTT assay.
Assay [9] relates to HL-60. In words: Antiproliferative activity against human HL60 cells by MTT assay.
Assay [10] deals with MCF7. Put plainly: Cytotoxicity against human MCF7 cells assessed as reduction in cell viability by MTT assay.
Assay [11] deals with SMMC-7721. In words: Cytotoxicity against human SMMC7721 cells assessed as reduction in cell viability by MTT assay.
In assay [12] the test system is L1210. In words: Cytotoxicity against mouse L1210 cells assessed as reduction in cell viability.
Assay [13] relates to L1210. In words: Cytotoxicity against mouse L1210 cells assessed as reduction in cell viability by MTT assay.
Assay [14] has as its system HL-60. Put plainly: Cytotoxicity against human HL60 cells assessed as reduction in cell viability by MTT assay.
The subject of assay [15] is Hep 3B2. Put plainly: Cytotoxicity against human Hep3B cells assessed as reduction in cell viability by MTT assay.
In assay [16] the test system is CAPAN-1. Put plainly: Cytotoxicity against human Capan1 cells assessed as reduction in cell viability by MTT assay.
The test system of assay [17] is SK-MEL3. Put plainly: Cytotoxicity against human SK-MEL-3 cells assessed as reduction in cell viability by MTT assay.
Assay [18] has as its system A-431. Put plainly: Cytotoxicity against human A431 cells assessed as reduction in cell viability by MTT assay.
The test system of assay [19] is EJ. In words: Cytotoxicity against human EJ cells assessed as reduction in cell viability by MTT assay.
Assay [20] deals with SW480. In words: Cytotoxicity against human SW480 cells assessed as reduction in cell viability by MTT assay.
Assay [21] concerns A549. In words: Antiproliferative activity against human A549 cells after 72 hrs by MTT assay. The following applies: A549, 72 h.
In assay [22] the test system is HL-60. Put plainly: Antiproliferative activity against human HL60 cells after 72 hrs by MTT assay. The settings on record: HL-60, 72 h.
The subject of assay [23] is CHO. Put plainly: Cytotoxicity against CHO cells assessed as reduction in cell viability. The following applies: Cricetulus griseus.

Take `COc1ccc2c(c1)c(=O)c(C(=O)Nc1cc(-c3ccccc3)nn1C)cn2CCCCCC(=O)NO`: the IC50 in [1], in [2] and in [3] was 0.6 to 16 µM throughout.

For the compound `O=c1[nH]c2ccccc2c2nn(-c3ccccc3)c(-c3cn(-c4ccccc4)nc3-c3ccccc3)c12`, the IC50 in [1], in assay [2] and in [3] was 0.16 to 0.3 µM throughout.

`COc1ccc(-c2c3c(=O)[nH]c4ccccc4c3nn2C(C)=O)cc1`: the concentration for half-maximal inhibition (IC50) in assay [1], in assay [2] and in [3] was 0.16 to 0.3 µM in each case.

As for `CN1CCN(c2cc3c(cc2F)c(=O)c(-c2nc4s/c(=C\c5ccc([N+](=O)[O-])cc5)c(=O)n4n2)cn3C2CC2)CC1`, the concentration for half-maximal inhibition (IC50) in assay [4], in assay [5] and in [6] was 0.3 to 8.4 µM in each case.

On to `Cc1csc(NC(=O)c2cn(CCCCCC(=O)NO)c3ccccc3c2=O)n1`, for which the IC50 in assay [1], in assay [2] and in assay [3] was 2.43 to 2.9 µM in each case.

As to `CN1CCN(c2cc3c(cc2F)c(=O)c(-c2nc4s/c(=C\c5cccc(C(=O)O)c5)c(=O)n4n2)cn3C2CC2)CC1`, the IC50 in assay [4], in assay [5] and in assay [6] was 0.3 to 8.4 µM in each case.

`CN1CCN(c2cc3c(cc2F)c(=O)c(-c2nc4s/c(=C\c5ccc(Cl)cc5)c(=O)n4n2)cn3C2CC2)CC1`: the half-maximal inhibitory concentration (IC50) in assay [4], in [5] and in assay [6] was greater than 10 µM in each case.

As to `Cc1ccccc1C1=NN=C2C(F)=Cc3c(n(C4CC4)cc(C(=O)O)c3=O)N2C1`, the IC50 in assay [7], in [8] and in assay [9] was 1 to 48.6 µM each time.

Turning to `O=C(CCCCCn1cc(C(=O)Nc2nccs2)c(=O)c2ccccc21)NO`, the IC50 in assay [1], in assay [2] and in assay [3] was 5 to 16 µM throughout.

Consider `O=C(O)c1cn(C2CC2)c2c(c1=O)C=C(F)C1=NN=C(c3ccc(F)cc3)CN12`, for which the IC50 in assay [7], in [8] and in [9] was 1 to 48.6 µM throughout.

Take `COc1ccc(/C=c2\sc3nc(-c4cn(C5CC5)c5cc(N6CCN(C)CC6)c(F)cc5c4=O)nn3c2=O)cc1`: the IC50 in [4], in [5] and in assay [6] was greater than 10 µM each time.

On to `O=C(O)c1cn(C2CC2)c2c(c1=O)C=C(F)C1=NN=C(c3ccc(Cl)cc3)CN12`, for which the IC50 in assay [7], in [8] and in assay [9] was 1 to 48.6 µM in each case.

For `CN1CCN(c2cc3c(cc2F)c(=O)c(-c2nc4s/c(=C\c5cccc(C#N)c5)c(=O)n4n2)cn3C2CC2)CC1`, the IC50 in assay [4], in assay [5] and in [6] was greater than 10 µM in each case.

In the case of `CC(=O)n1nc2c(c1-c1cccs1)c(=O)[nH]c1ccccc12`, the IC50 in assay [1], in assay [2] and in assay [3] was 0.16 to 0.3 µM throughout.

With `Cc1ccc(C2=NN=C3C(F)=Cc4c(n(C5CC5)cc(C(=O)O)c4=O)N3C2)cc1`, the IC50 in assay [7], in assay [8] and in assay [9] was 1 to 48.6 µM each time.

In the case of `CN1CCN(c2cc3c(cc2F)c(=O)c(-c2nc4s/c(=C\c5cccc([N+](=O)[O-])c5)c(=O)n4n2)cn3C2CC2)CC1`, the IC50 in assay [4], in [5] and in assay [6] was 0.3 to 8.4 µM in each case.

For `O=C(O)c1cn(C2CC2)c2c(c1=O)C=C(F)C1=NN=C(c3cccc(Cl)c3)CN12`, the IC50 in [7], in [8] and in assay [9] was 1 to 48.6 µM each time.

For `COC(=O)c1ccc(/C=c2\sc3nc(-c4cn(C5CC5)c5cc(N6CCN(C)CC6)c(F)cc5c4=O)nn3c2=O)cc1`, the IC50 in assay [4], in assay [5] and in [6] was 0.3 to 8.4 µM throughout.

As to `O=C(CCCCCn1cc(C(=O)Nc2nc3ccccc3s2)c(=O)c2cc(F)ccc21)NO`, the IC50 in assay [1], in assay [2] and in assay [3] was 0.6 to 16 µM each time.

For `O=c1[nH]c2ccccc2c2n[nH]c(-c3cn(-c4ccccc4)nc3-c3ccccc3)c12`, the IC50 in [1], in assay [2] and in assay [3] was 0.16 to 0.3 µM throughout.

Turning to `O=C(O)c1cn(C2CC2)c2c(c1=O)C=C(F)C1=NN=C(c3ccccc3)CN12`, the IC50 in [7], in assay [8] and in assay [9] was 1 to 48.6 µM each time.

For the compound `O=C(O)c1cn(C2CC2)c2c(c1=O)C=C(F)C1=NN=C(c3cccc([N+](=O)[O-])c3)CN12`, the IC50 in assay [7] was 1.6 µM; in assay [8], 3.2 µM; in assay [9] it was 1 to 48.6 µM.

On to `COc1ccc(C2=NN=C3C(F)=Cc4c(n(C5CC5)cc(C(=O)O)c4=O)N3C2)cc1OC`, for which the IC50 in assay [7], in [8] and in assay [9] was 1 to 48.6 µM in each case.

In the case of `COc1ccc(C2=NN=C3C(F)=Cc4c(n(C5CC5)cc(C(=O)O)c4=O)N3C2)cc1`, the concentration for half-maximal inhibition (IC50) in [7], in [8] and in [9] was 1 to 48.6 µM throughout.

Regarding `O=C(O)c1cn(C2CC2)c2c(c1=O)C=C(F)C1=NN=C(c3ccc([N+](=O)[O-])cc3)CN12`, the IC50 in [7] was 1 µM; in assay [8] it was 3.5 µM; in [9] it was 1 to 48.6 µM.

On to `COc1ccccc1/C=c1\sc2nc(-c3cn(C4CC4)c4cc(N5CCN(C)CC5)c(F)cc4c3=O)nn2c1=O`, for which the IC50 in [4], in [5] and in assay [6] was greater than 10 µM throughout.

With `COc1ccc2c(c1)c(=O)c(C(=O)Nc1nc3ccccc3s1)cn2CCCCCC(=O)NO`, the IC50 in [1], in assay [2] and in assay [3] was 0.6 to 16 µM in each case.

For the compound `CN1CCN(c2cc3c(cc2F)c(=O)c(-c2nc4s/c(=C\c5cccc(S(N)(=O)=O)c5)c(=O)n4n2)cn3C2CC2)CC1`, the IC50 in assay [4], in assay [5] and in assay [6] was 0.3 to 8.4 µM in each case.

Regarding `COC(=O)c1cccc(/C=c2\sc3nc(-c4cn(C5CC5)c5cc(N6CCN(C)CC6)c(F)cc5c4=O)nn3c2=O)c1`, the concentration for half-maximal inhibition (IC50) in assay [4], in assay [5] and in assay [6] was 0.3 to 8.4 µM each time.

Turning to `O=C(O)c1cn(C2CC2)c2c(c1=O)C=C(F)C1=NN=C(c3ccc(Br)cc3)CN12`, the half-maximal inhibitory concentration (IC50) in [7], in assay [8] and in assay [9] was 1 to 48.6 µM each time.

As to `CN1CCN(c2cc3c(cc2F)c(=O)c(-c2nc4s/c(=C\c5ccc(C#N)cc5)c(=O)n4n2)cn3C2CC2)CC1`, the IC50 in [4], in assay [5] and in assay [6] was greater than 10 µM in each case.

As for `O=C(O)c1cn(C2CC2)c2cc(N3CCNCC3)c(F)cc2c1=O` [CIPROFLOXACIN], the IC50 was greater than 100 µM in assay [10]; 137 to 238 µM in assay [11]; greater than 150 µM in assay [12]; greater than 150 µM in [4]; greater than 100 µM in [13]; greater than 100 µM in [14]. Besides, the IC50 is greater than 100 µM in assay [15]; greater than 100 µM in assay [16]; 137 to 238 µM in assay [17]; 137 to 238 µM in [18]; 137 to 238 µM in assay [19]; 137 to 238 µM in assay [20]. Moreover, the IC50 in assay [21] is greater than 0.302 µM; in assay [22], greater than 0.302 µM; in [23] it was greater than 150 µM; in assay [7], no less than 100 µM; in [8], no less than 100 µM; in assay [9], no less than 100 µM.

For the compound `O=c1[nH]c2ccccc2c2n[nH]c(/C=C/c3ccccc3)c12`, the IC50 in assay [1], in [2] and in assay [3] was 0.16 to 0.3 µM throughout.

As to `O=C(CCCCCn1cc(C(=O)Nc2nc3ccccc3s2)c(=O)c2ccccc21)NO`, the IC50 in [1], in [2] and in assay [3] was 0.6 to 1 µM in each case.

On to `O=c1[nH]cc(F)c(=O)[nH]1` [FLUOROURACIL], for which the IC50 in assay [1], in [2] and in assay [3] was 0.54 µM throughout.

For `CC(=O)n1cc2c(=O)[nH]c3ccccc3c2n1`, the IC50 in [1], in assay [2] and in assay [3] was 0.16 to 0.3 µM throughout.

Take `CN1CCN(c2cc3c(cc2F)c(=O)c(-c2nc4s/c(=C\c5ccc(C(=O)O)cc5)c(=O)n4n2)cn3C2CC2)CC1`: the IC50 in [4], in assay [5] and in [6] was 0.3 to 8.4 µM each time.

Turning to `Nc1ccc(C2=NN=C3C(F)=Cc4c(n(C5CC5)cc(C(=O)O)c4=O)N3C2)cc1`, the half-maximal inhibitory concentration (IC50) in assay [7], in assay [8] and in assay [9] was 1 to 48.6 µM in each case.

On to `Cn1nc(-c2ccccc2)cc1NC(=O)c1cn(CCCCCC(=O)NO)c2ccccc2c1=O`, for which the IC50 in assay [1], in assay [2] and in [3] was 0.6 to 16 µM in each case.

Take `Cc1ccc(/C=c2\sc3nc(-c4cn(C5CC5)c5cc(N6CCN(C)CC6)c(F)cc5c4=O)nn3c2=O)cc1`: the IC50 in [4], in assay [5] and in assay [6] was greater than 10 µM in each case.

In the case of `O=C(O)c1cn(C2CC2)c2c(c1=O)C=C(F)C1=NN=C(c3ccccc3F)CN12`, the IC50 in assay [7], in assay [8] and in assay [9] was 1 to 48.6 µM throughout.

The IC50 is the concentration needed to halve the response being measured.
